Results reported in PubChem BioAssay AID2060504 (Molecular Pharmacology Branch, DTP, NCI, 2025).
pIC50: −log10 of the molar value.

Tested on: 636577-100-R-J1-PDC complex spheroid viability
Experiment: Anticancer human tumor 636577-100-R-J1-PDC patient-derived endometrial adenocarcinoma cell line growth inhibition [GQUAD]
Conditions: for pIC50: curve of first compound; for viability, T/C: stronger effect = lower value; active means viability on the fitted dose curve at most 10% of control; inactive means the rest
How it was run: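 Tumor cells were grown as complex spheroids with HUVEC endothelial cells and mesenchymal stem cells as stroma. G-quadruplex stabilizers were combined with targeted agents over half-log dilutions from near the clinical Cmax, or from 10 microM.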

[1] = second compound 0.0316 µM, first compound 0.0316 µM
[2] = second compound 0.0316 µM, first compound 0.1 µM
[3] = second compound 0.0316 µM, first compound 0.316 µM
[4] = second compound 0.0316 µM, first compound 1 µM
[5] = second compound 0.0316 µM, first compound 3.16 µM
[6] = second compound 0.0316 µM, first compound 10 µM
[7] = second compound 0.1 µM, first compound 0.0316 µM
[8] = second compound 0.1 µM, first compound 0.1 µM
[9] = second compound 0.1 µM, first compound 0.316 µM
[10] = second compound 0.1 µM, first compound 1 µM
[11] = second compound 0.1 µM, first compound 3.16 µM
[12] = second compound 0.1 µM, first compound 10 µM
[13] = second compound 0.316 µM, first compound 0.0316 µM
[14] = second compound 0.316 µM, first compound 0.1 µM
[15] = second compound 0.316 µM, first compound 0.316 µM
[16] = second compound 0.316 µM, first compound 1 µM
[17] = second compound 0.316 µM, first compound 3.16 µM
[18] = second compound 0.316 µM, first compound 10 µM
[19] = second compound 1 µM, first compound 0.0316 µM
[20] = second compound 1 µM, first compound 0.1 µM
[21] = second compound 1 µM, first compound 0.316 µM
[22] = second compound 1 µM, first compound 1 µM
[23] = second compound 1 µM, first compound 3.16 µM
[24] = second compound 1 µM, first compound 10 µM
[25] = second compound 3.16 µM, first compound 0.0316 µM
[26] = second compound 3.16 µM, first compound 0.1 µM
[27] = second compound 3.16 µM, first compound 0.316 µM
[28] = second compound 3.16 µM, first compound 1 µM
[29] = second compound 3.16 µM, first compound 3.16 µM
[30] = second compound 3.16 µM, first compound 10 µM
[31] = second compound 10 µM, first compound 0.0316 µM
[32] = second compound 10 µM, first compound 0.1 µM
[33] = second compound 10 µM, first compound 0.316 µM
[34] = second compound 10 µM, first compound 1 µM
[35] = second compound 10 µM, first compound 3.16 µM
[36] = second compound 10 µM, first compound 10 µM
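Further: viability read after seven days of drug exposure.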
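Wherever viability, T/C is given: luminescence signal used as a proxy for viable cells; 100% = DMSO vehicle control wells.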

CC(=O)O[C@H]1C(=O)[C@@]2(C)[C@H]([C@H](OC(=O)c3ccccc3)[C@]3(O)C[C@H](OC(=O)[C@H](O)[C@@H](NC(=O)c4ccccc4)c4ccccc4)C(C)=C1C3(C)C)[C@]1(OC(C)=O)CO[C@@H]1C[C@@H]2O + CN(C)c1ccc(Nc2c3ccc(NC(=O)CCN4CCCC4)cc3nc3cc(NC(=O)CCN4CCCC4)ccc23)cc1
active: viability, T/C [10] 8.93% | viability, T/C [11] 9.82% | viability, T/C [12] 8.97% | viability, T/C [31] 4.59% | viability, T/C [32] 3.8% | viability, T/C [33] 2.57% | viability, T/C [34] 3.21% | viability, T/C [35] 3.16% | viability, T/C [36] 2.15%
inactive: viability, T/C [1] 20.1% | viability, T/C [2] 12.8% | viability, T/C [3] 13.3% | viability, T/C [4] 11.8% | viability, T/C [5] 11.5% | viability, T/C [6] 10.8% | viability, T/C [7] 18.8% | viability, T/C [8] 13.5% | viability, T/C [9] 11.4% | viability, T/C [13] 15.9% | viability, T/C [14] 12.3% | viability, T/C [15] 10.4% | viability, T/C [16] 12.6% | viability, T/C [17] 9.5% | viability, T/C [18] 10.1% | viability, T/C [19] 15.9% | viability, T/C [20] 12.8% | viability, T/C [21] 12.5% | viability, T/C [22] 11.6% | viability, T/C [23] 10% | viability, T/C [24] 10.4% | viability, T/C [25] 16.2% | viability, T/C [26] 12.7% | viability, T/C [27] 13.4% | viability, T/C [28] 11.6% | viability, T/C [29] 11.8% | viability, T/C [30] 11.2%
> 7.50: pIC50 (second compound 0.0316 µM) | pIC50 (second compound 0.1 µM) | pIC50 (second compound 0.316 µM) | pIC50 (second compound 1 µM) | pIC50 (second compound 3.16 µM) | pIC50 (second compound 10 µM)

COc1cc(C2c3cc4c(cc3C(OC3OC5COC(C)OC5C(O)C3O)C3COC(=O)C23)OCO4)cc(OC)c1O (stereo not given) + CN(C)c1ccc(Nc2c3ccc(NC(=O)CCN4CCCC4)cc3nc3cc(NC(=O)CCN4CCCC4)ccc23)cc1
active: viability, T/C [31] 5.34% | viability, T/C [32] 4.62% | viability, T/C [33] 4.08% | viability, T/C [34] 4.02% | viability, T/C [35] 2.93% | viability, T/C [36] 2.35%
7.33: pIC50 (second compound 0.1 µM) | pIC50 (second compound 0.316 µM)
7.19: pIC50 (second compound 0.0316 µM)
inactive: viability, T/C [1] 77.5% | viability, T/C [2] 33.3% | viability, T/C [3] 20.7% | viability, T/C [4] 17.2% | viability, T/C [5] 15.7% | viability, T/C [6] 13.8% | viability, T/C [7] 61.4% | viability, T/C [8] 27.9% | viability, T/C [9] 18.8% | viability, T/C [10] 19% | viability, T/C [11] 18.5% | viability, T/C [12] 14.6% | viability, T/C [13] 57% | viability, T/C [14] 37.1% | viability, T/C [15] 22.3% | viability, T/C [16] 17.7% | viability, T/C [17] 15.7% | viability, T/C [18] 12.9% | viability, T/C [19] 50.4% | viability, T/C [20] 30.6% | viability, T/C [21] 18.5% | viability, T/C [22] 20.1% | viability, T/C [23] 16.2% | viability, T/C [24] 13.8% | viability, T/C [25] 27.6% | viability, T/C [26] 20.5% | viability, T/C [27] 19.6% | viability, T/C [28] 17.4% | viability, T/C [29] 16.8% | viability, T/C [30] 13.1%
7.49: pIC50 (second compound 1 µM)
> 7.50: pIC50 (second compound 3.16 µM) | pIC50 (second compound 10 µM)

COc1cccc2c1C(=O)c1c(O)c3c(c(O)c1C2=O)CC(O)(C(=O)CO)CC3OC1CC(N)C(O)C(C)O1 (stereo not given) + CN(C)c1ccc(Nc2c3ccc(NC(=O)CCN4CCCC4)cc3nc3cc(NC(=O)CCN4CCCC4)ccc23)cc1
inactive: viability, T/C [1] 28% | viability, T/C [2] 17.2% | viability, T/C [3] 15.3% | viability, T/C [7] 27.2% | viability, T/C [8] 15.9% | viability, T/C [9] 15.3% | viability, T/C [13] 28% | viability, T/C [14] 18.6% | viability, T/C [15] 12.9% | viability, T/C [19] 25% | viability, T/C [20] 18.6% | viability, T/C [21] 13.3% | viability, T/C [25] 19.4% | viability, T/C [26] 17.2%
active: viability, T/C [4] 7.48% | viability, T/C [5] 0.17% | viability, T/C [6] 0.58% | viability, T/C [10] 7.46% | viability, T/C [11] 0.12% | viability, T/C [12] 0.61% | viability, T/C [16] 7.67% | viability, T/C [17] 0.2% | viability, T/C [18] 0.5% | viability, T/C [22] 7.58% | viability, T/C [23] 0.13% | viability, T/C [24] 0.47% | viability, T/C [27] 10.8% | viability, T/C [28] 3.65% | viability, T/C [29] 0.16% | viability, T/C [30] 0.34% | viability, T/C [31] 4.99% | viability, T/C [32] 3.27% | viability, T/C [33] 1.84% | viability, T/C [34] 0.34% | viability, T/C [35] 0.19% | viability, T/C [36] 0.27%
> 7.50: pIC50 (second compound 0.0316 µM) | pIC50 (second compound 0.1 µM) | pIC50 (second compound 0.316 µM) | pIC50 (second compound 1 µM) | pIC50 (second compound 3.16 µM) | pIC50 (second compound 10 µM)

Nc1ccn(C2OC(CO)C(O)C2(F)F)c(=O)n1 (stereo not given) + CN(C)c1ccc(Nc2c3ccc(NC(=O)CCN4CCCC4)cc3nc3cc(NC(=O)CCN4CCCC4)ccc23)cc1
active: viability, T/C [31] 3.38% | viability, T/C [32] 3.05% | viability, T/C [33] 4% | viability, T/C [34] 3.42% | viability, T/C [35] 3.65% | viability, T/C [36] 3.14%
> 7.50: pIC50 (second compound 0.0316 µM) | pIC50 (second compound 0.1 µM) | pIC50 (second compound 0.316 µM) | pIC50 (second compound 1 µM) | pIC50 (second compound 3.16 µM) | pIC50 (second compound 10 µM)
inactive: viability, T/C [1] 17.7% | viability, T/C [2] 13.4% | viability, T/C [3] 14.6% | viability, T/C [4] 17.2% | viability, T/C [5] 16.4% | viability, T/C [6] 15.8% | viability, T/C [7] 17.7% | viability, T/C [8] 14.2% | viability, T/C [9] 14.9% | viability, T/C [10] 14.3% | viability, T/C [11] 14.5% | viability, T/C [12] 18.5% | viability, T/C [13] 16.9% | viability, T/C [14] 11.2% | viability, T/C [15] 14.2% | viability, T/C [16] 17.4% | viability, T/C [17] 16.4% | viability, T/C [18] 15.6% | viability, T/C [19] 15.9% | viability, T/C [20] 16.7% | viability, T/C [21] 15.2% | viability, T/C [22] 17.8% | viability, T/C [23] 16.5% | viability, T/C [24] 17.1% | viability, T/C [25] 16.6% | viability, T/C [26] 13.9% | viability, T/C [27] 15.2% | viability, T/C [28] 14.8% | viability, T/C [29] 16.3% | viability, T/C [30] 14.5%

O=c1[nH]cc(F)c(=O)[nH]1 + CN(C)c1ccc(Nc2c3ccc(NC(=O)CCN4CCCC4)cc3nc3cc(NC(=O)CCN4CCCC4)ccc23)cc1
inactive: viability, T/C [1] 83.1% | viability, T/C [2] 85.7% | viability, T/C [3] 87.9% | viability, T/C [4] 79.5% | viability, T/C [5] 62.5% | viability, T/C [6] 30.1% | viability, T/C [7] 105% | viability, T/C [8] 110% | viability, T/C [9] 72.3% | viability, T/C [10] 63.6% | viability, T/C [11] 67.5% | viability, T/C [12] 27.4% | viability, T/C [13] 88% | viability, T/C [14] 75.3% | viability, T/C [15] 75.6% | viability, T/C [16] 79.9% | viability, T/C [17] 69.5% | viability, T/C [18] 29.2% | viability, T/C [19] 67.5% | viability, T/C [20] 88.8% | viability, T/C [21] 70.5% | viability, T/C [22] 65.3% | viability, T/C [23] 50.8% | viability, T/C [24] 26% | viability, T/C [25] 43.7% | viability, T/C [26] 44.2% | viability, T/C [27] 49.5% | viability, T/C [28] 32.1% | viability, T/C [29] 27.7% | viability, T/C [30] 21%
active: viability, T/C [31] 7% | viability, T/C [32] 6.98% | viability, T/C [33] 6.89% | viability, T/C [34] 6.25% | viability, T/C [35] 6.48% | viability, T/C [36] 3.81%
5.50: pIC50 (second compound 1 µM)
> 7.50: pIC50 (second compound 3.16 µM) | pIC50 (second compound 10 µM)
5.43: pIC50 (second compound 0.1 µM)
5.26: pIC50 (second compound 0.316 µM)
5.31: pIC50 (second compound 0.0316 µM)
